These results are taken from patent US8574563B2 (Bristol-Myers Squibb Company, priority 2006, dated 2013).

The first test relates to HCV 1b-377-neo replicon cells. In words: HCV replicon assay, HCV 1b-377-neo replicon cells (1b FRET). In kind it is cell-based, Hepatitis C virus genotype 1b. The settings on record: HCV 1b-377-neo replicon cells; HCV 1b genotype; read-out: EC50 range against HCV 1b (Table 2, Range). An outline of the steps:
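FRET-based replicon assay in HCV 1b-377-neo cells, including a comparison line carrying the NS5A Y2065H mutation that confers resistance to a reference compound.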
Regarding `CN(C)CC(=O)N[C@@H](C(=O)N1CCC[C@H]1c1ncc(-c2ccc(-c3ccc(-c4c[nH]c([C@@H]5CCCN5C(=O)[C@H]5CCCO5)n4)cc3)cc2)[nH]1)c1ccccc1` [Example 120-8, N^2,N^2-dimethyl-N-((1R)-2-oxo-1-phenyl-2-((2S)-2-(5-(4′-(2-((2S)-1-((2R)-tetrahydro-2-furanylcarbonyl)-2-pyrrolidinyl)-1H-imidazol-4-yl)-4-biphenylyl)-1H-imidazol-2-yl)-1-pyrrolidinyl)ethyl) glycinamide], the EC50 lay within 1000 to 99000 pM.

The test is the same for the next values; noted with them: Hepatitis C virus, HCV 1b-377-neo replicon cells; HCV 1b genotype; read-out: EC50 range against HCV 1b (Table 2, Range).
For the compound `CN1CCC[C@H]1C(=O)N[C@@H](C(=O)N1CCC[C@H]1c1ncc(-c2ccc(-c3ccc(-c4cnc([C@@H]5CCCN5C(=O)[C@@H]5CCCO5)[nH]4)cc3)cc2)[nH]1)c1ccccc1` [Example 113, 1-methyl-N-((1R)-2-oxo-1-phenyl-2-((2S)-2-(5-(4′-(2-((2S)-1-((2S)-tetrahydro-2-furanylcarbonyl)-2-pyrrolidinyl)-1H-imidazol-5-yl)-4-biphenylyl)-1H-imidazol-2-yl)-1-pyrrolidinyl)ethyl)-L-prolinamide], the EC50 was in the range of 1 to 999 pM.
Take `CN1CCC(C(=O)N[C@@H](C(=O)N2CCC[C@H]2c2ncc(-c3ccc(-c4ccc(-c5cnc([C@@H]6CCCN6C(=O)[C@@H]6CCCO6)[nH]5)cc4)cc3)[nH]2)c2ccccc2)CC1` [Example 114, 1-methyl-N-((1R)-2-oxo-1-phenyl-2-((2S)-2-(5-(4′-(2-((2S)-1-((2S)-tetrahydro-2-furanylcarbonyl)-2-pyrrolidinyl)-1H-imidazol-5-yl)-4-biphenylyl)-1H-imidazol-2-yl)-1-pyrrolidinyl)ethyl)-4-piperidinecarboxamide]: the EC50 was in the range of 1 to 999 pM.
Turning to `O=C(N[C@@H](C(=O)N1CCC[C@H]1c1ncc(-c2ccc(-c3ccc(-c4cnc([C@@H]5CCCN5C(=O)[C@@H]5CCCO5)[nH]4)cc3)cc2)[nH]1)c1ccccc1)C1CCOCC1` [Example 115, N-((1R)-2-oxo-1-phenyl-2-((2S)-2-(5-(4′-(2-((2S)-1-((2S)-tetrahydro-2-furanylcarbonyl)-2-pyrrolidinyl)-1H-imidazol-5-yl)-4-biphenylyl)-1H-imidazol-2-yl)-1-pyrrolidinyl)ethyl) tetrahydro-2H-pyran-4-carboxamide], the EC50 fell in the range of 1 to 999 pM.
Still for that read-out and setting: next, `CN1C[C@H](F)C[C@H]1C(=O)N[C@@H](C(=O)N1CCC[C@H]1c1ncc(-c2ccc(-c3ccc(-c4cnc([C@@H]5CCCN5C(=O)[C@@H]5CCCO5)[nH]4)cc3)cc2)[nH]1)c1ccccc1` [Example 116, (4R)-4-fluoro-1-methyl-N-((1R)-2-oxo-1-phenyl-2-((2S)-2-(5-(4′-(2-((2S)-1-((2S)-tetrahydro-2-furanylcarbonyl)-2-pyrrolidinyl)-1H-imidazol-5-yl)-4-biphenylyl)-1H-imidazol-2-yl)-1-pyrrolidinyl)ethyl)-L-prolinamide]: 1 to 999 pM; `CN1CCN(C(=O)N[C@@H](C(=O)N2CCC[C@H]2c2ncc(-c3ccc(-c4ccc(-c5cnc([C@@H]6CCCN6C(=O)[C@@H]6CCCO6)[nH]5)cc4)cc3)[nH]2)c2ccccc2)CC1` [Example 117, 4-methyl-N-((1R)-2-oxo-1-phenyl-2-((2S)-2-(5-(4′-(2-((2S)-1-((2S)-tetrahydro-2-furanylcarbonyl)-2-pyrrolidinyl)-1H-imidazol-5-yl)-4-biphenylyl)-1H-imidazol-2-yl)-1-pyrrolidinyl)ethyl)-1-piperazinecarboxamide]: 1 to 999 pM; `CC(=O)N[C@@H](C(=O)N1CCC[C@H]1c1ncc(-c2ccc(-c3ccc(-c4cnc([C@@H]5CCCN5C(=O)[C@H]5CCCO5)[nH]4)cc3)cc2)[nH]1)c1ccccc1` [Example 118, N-((1R)-2-oxo-1-phenyl-2-((2S)-2-(5-(4′-(2-((2S)-1-((2R)-tetrahydro-2-furanylcarbonyl)-2-pyrrolidinyl)-1H-imidazol-5-yl)-4-biphenylyl)-1H-imidazol-2-yl)-1-pyrrolidinyl)ethyl) acetamide]: 1 to 999 pM.
Same read-out and setting: next, `O=C(N[C@@H](C(=O)N1CCC[C@H]1c1ncc(-c2ccc(-c3ccc(-c4cnc([C@@H]5CCCN5C(=O)[C@H]5CCCO5)[nH]4)cc3)cc2)[nH]1)c1ccccc1)[C@H]1CCCO1` [Example 119, (2R)-N-((1R)-2-oxo-1-phenyl-2-((2S)-2-(5-(4′-(2-((2S)-1-((2R)-tetrahydro-2-furanylcarbonyl)-2-pyrrolidinyl)-1H-imidazol-5-yl)-4-biphenylyl)-1H-imidazol-2-yl)-1-pyrrolidinyl)ethyl)tetrahydro-2-furancarboxamide]: 1 to 999 pM; `O=C(N[C@@H](C(=O)N1CCC[C@H]1c1ncc(-c2ccc(-c3ccc(-c4cnc([C@@H]5CCCN5C(=O)[C@H]5CCCO5)[nH]4)cc3)cc2)[nH]1)c1ccccc1)N1CCOCC1` [Example 120, N-((1R)-2-oxo-1-phenyl-2-((2S)-2-(5-(4′-(2-((2S)-1-((2R)-tetrahydro-2-furanylcarbonyl)-2-pyrrolidinyl)-1H-imidazol-5-yl)-4-biphenylyl)-1H-imidazol-2-yl)-1-pyrrolidinyl)ethyl)-4-morpholinecarboxamide]: 1 to 999 pM.
Same read-out and setting: for `Cn1cncc1C(=O)N[C@@H](C(=O)N1CCC[C@H]1c1ncc(-c2ccc(-c3ccc(-c4c[nH]c([C@@H]5CCCN5C(=O)[C@H]5CCCO5)n4)cc3)cc2)[nH]1)c1ccccc1` [Example 120-5, 1-methyl-N-((1R)-2-oxo-1-phenyl-2-((2S)-2-(5-(4′-(2-((2S)-1-((2R)-tetrahydro-2-furanylcarbonyl)-2-pyrrolidinyl)-1H-imidazol-4-yl)-4-biphenylyl)-1H-imidazol-2-yl)-1-pyrrolidinyl)ethyl)-1H-imidazole-5-carboxamide] the value was 1000 to 99000 pM; for `CN1CCC[C@H]1C(=O)N[C@@H](C(=O)N1CCC[C@H]1c1ncc(-c2ccc(-c3ccc(-c4c[nH]c([C@@H]5CCCN5C(=O)[C@H]5CCCO5)n4)cc3)cc2)[nH]1)c1ccccc1` [Example 120-6, 1-methyl-N-((1R)-2-oxo-1-phenyl-2-((2S)-2-(5-(4′-(2-((2S)-1-((2R)-tetrahydro-2-furanylcarbonyl)-2-pyrrolidinyl)-1H-imidazol-4-yl)-4-biphenylyl)-1H-imidazol-2-yl)-1-pyrrolidinyl)ethyl)-L-prolinamide], 1000 to 99000 pM; for `O=C(Cc1cccnc1)N[C@@H](C(=O)N1CCC[C@H]1c1ncc(-c2ccc(-c3ccc(-c4c[nH]c([C@@H]5CCCN5C(=O)[C@H]5CCCO5)n4)cc3)cc2)[nH]1)c1ccccc1` [Example 120-7, N-((1R)-2-oxo-1-phenyl-2-((2S)-2-(5-(4′-(2-((2S)-1-((2R)-tetrahydro-2-furanylcarbonyl)-2-pyrrolidinyl)-1H-imidazol-4-yl)-4-biphenylyl)-1H-imidazol-2-yl)-1-pyrrolidinyl)ethyl)-2-(3-pyridinyl)acetamide], 1 to 999 pM.
Take `O=C(Nc1cccnc1)N[C@@H](C(=O)N1CCC[C@H]1c1ncc(-c2ccc(-c3ccc(-c4c[nH]c([C@@H]5CCCN5C(=O)[C@H]5CCCO5)n4)cc3)cc2)[nH]1)c1ccccc1` [Example 120-9, 1-((1R)-2-oxo-1-phenyl-2-((2S)-2-(5-(4′-(2-((2S)-1-((2R)-tetrahydro-2-furanylcarbonyl)-2-pyrrolidinyl)-1H-imidazol-4-yl)-4-biphenylyl)-1H-imidazol-2-yl)-1-pyrrolidinyl)ethyl)-3-(3-pyridinyl)urea]: the EC50 lay within 1 to 999 pM.
On the same count and under the same terms, next, `Cc1cc(-c2cnc([C@@H]3CCCN3C(=O)[C@@H](c3ccccc3)N(C)C)[nH]2)ccc1-c1ccc(-c2cnc([C@@H]3CCCN3C(=O)[C@@H](c3ccccc3)N(C)C)[nH]2)cc1C` [Example 121]: 1 to 999 pM.
Same read-out and setting: next, `COC(=O)N[C@@H](C(=O)N1CCC[C@H]1c1ncc(-c2ccc(-c3ccc(-c4cnc([C@@H]5CCCN5C(=O)[C@H](NC(=O)OC)c5ccccc5)[nH]4)cc3C)c(C)c2)[nH]1)c1ccccc1` [Example 122]: 1 to 999 pM; `Cc1cc(-c2cnc([C@@H]3CCCN3C(=O)[C@@H](c3ccccc3)N(C)C)[nH]2)ccc1-c1ccc(-c2cnc([C@@H]3CCCN3C(=O)[C@@H](c3ccccc3)N(C)C)[nH]2)cc1` [Example 123, (1R,1′R)-2,2′-((2-methyl-4,4′-biphenyldiyl)bis(1H-imidazole-5,2-diyl(2S)-2,1-pyrrolidinediyl))bis(N,N-dimethyl-2-oxo-1-phenylethanamine)]: 1 to 999 pM; `COC(=O)N[C@@H](C(=O)N1CCC[C@H]1c1ncc(-c2ccc(-c3ccc(-c4cnc([C@@H]5CCCN5C(=O)[C@H](NC(=O)OC)c5ccccc5)[nH]4)cc3C)cc2)[nH]1)c1ccccc1` [Example 124, dimethyl ((2-methyl-4,4′-biphenyldiyl)bis(1H-imidazole-5,2-diyl(2S)-2,1-pyrrolidinediyl((1R)-2-oxo-1-phenyl-2,1-ethanediyl)))biscarbamate]: 1 to 999 pM.
Same read-out and setting: next, `Cc1cc(-c2cnc([C@@H]3CCCN3C(=O)[C@H](O)c3ccccc3)[nH]2)ccc1-c1ccc(-c2cnc([C@@H]3CCCN3C(=O)[C@H](O)c3ccccc3)[nH]2)cc1` [Example 125, (1R,1′R)-2,2′-((2-methyl-4,4′-biphenyldiyl)bis(1H-imidazole-5,2-diyl(2S)-2,1-pyrrolidinediyl))bis(2-oxo-1-phenylethanol)]: 1 to 999 pM; `COC(=O)N[C@@H](C(=O)N1CCC[C@H]1c1ncc(-c2ccc(-c3ccc(-c4cnc([C@@H]5CCCN5C(=O)[C@@H](c5ccccc5)N(C)C)[nH]4)cc3C)cc2)[nH]1)c1ccccc1` [Example 126, methyl ((1R)-2-((2S)-2-(5-(4′-(2-((2S)-1-((2R)-2-(dimethylamino)-2-phenylacetyl)-2-pyrrolidinyl)-1H-imidazol-5-yl)-2′-methyl-4-biphenylyl)-1H-imidazol-2-yl)-1-pyrrolidinyl)-2-oxo-1-phenylethyl)carbamate]: 1 to 999 pM.
